Patent US20220396818A1, “POLYNUCLEOTIDE SYNTHESIS METHOD, KIT AND SYSTEM” (Oxford Nanopore Technologies PLC, priority 2019, published 2022)

Tested on: 3′-O-azidomethyl group on DNA model
Test: Deprotection of 3′-O-azidomethyl group by TCEP, monitored by extension reaction
Conditions: 0.2 μM DNA model
Method: Deprotection step (FIG. 26a) was studied on DNA model bearing 3′-O-azidomethyl group that is introduced to DNA by incorporation of 3′-O-azidomethyl-dNTPs by Therminator IX DNA polymerase. Deprotection was carried out by tris(carboxyethyl)phosphine (TCEP) and monitored by extension reaction when mixture of all natural dNTPs is added to the solution of the purified deprotected DNA.
• 1. 2 μl of 10× Thermopol® buffer (20 mM Tris-HCl, 10 mM (NH4)2SO4, 10 mM KCl, 2 mM MgSO4, 0.1% Triton® X-100, pH 8.8, New England BioLabs) was mixed with 12.25 μl of sterile deionized water (ELGA VEOLIA) in 1.5 ml Eppendorf tube. • 2. 1 μl of 10 μM primer (10 pmol, 1 equiv) (SEQ ID NO: 39, FIG. 26i) and 1.5 μl of either 10 μM template-A/G/T/C (15 pmol, 1.5 equiv) (SEQ ID NOS: 40 to 43, FIG. 26i) were added to the reaction mixture. • 3. 3′-O-modified-dTTP/dCTP/dATP/dGTP (2 μl of 100 μM) and MnCl2 (1 μl of 40 mM) were added. • 4. 1.5 μl of Therminator IX DNA polymerase (15 U, New England BioLabs) was then added. • 5. The reaction was incubated for 5 minutes at 37° C. • 6. 4 μL of the sample was taken out and mixed with 0.5 ul of 5 mM dNTP mix and allowed to react for 10 minutes for control reaction. • 7. 40 μL of the 500 mM TCEP in 1M TRIS buffer pH 7.4 was added to the reaction mixture and allowed to react for 10 minutes at 37° C. • 8. […]

## O=C(O)CCP(CCC(=O)O)CCC(=O)O [TCEP, tris(carboxyethyl)phosphine]
50 mM TCEP
  cleavage of 3′-O-azidomethyl group with high efficiency: not sufficient
300 mM TCEP
  efficiency of cleavage of 3′-O-azidomethyl group: 95%
